The test system of data set [1] is gram-negative and gram-positive bacteria. In words: Antibacterial activity (general statements). Type of data set: cell-based.
The next data set relates to Proteus vulgaris MB-838. In words: Disc-plate assay using Proteus vulgaris.
In the next data set the test system is Vibrio percolans MB-1272. In words: Disc-plate assay using Vibrio percolans.
Data set [2] deals with Aerobacter cloacae (MB-2646). Kind of data set: Bacterial inactivation, cell-free extract. The data set is classed as biochemical. Conditions: for Antibiotic Activity Remaining: starting 250 μg./ml. As to the method: The ability of Antibiotic 810A and cephalosporin C to withstand the degradative effect of the culture Aerobacter cloacae (MB-2646) was also determined. This culture is gram-negative and resistant to cephalosporin C. […] The source of the inactivating substance is a 1:160 dilution of the filtrate of an 18 hour 37° C. shake culture of Aerobacter cloacae MB-2646 in nutrient broth containing 0.2% yeast extract. Table XIV, infra, indicates the percent inactivation of Antibotic 810A, cephalothin, cephaloridine and cephalosporin C on Vibrio percolans (MB-1272) via this method:
Using the same assay procedure as described above, Table XV, infra, indicates the relative resistance of Antibiotic 810A to enzymatic inactivation by Aerobacter cloacae. The starting concentration is 250 μg./ml. Results are expressed in μg./ml.

In a further data set the test system is Proteus morganii 3202. Kind of data set: In vivo mouse protection test. Set-up: species or system white Swiss mice. Conditions: 4000 mg. × 2 doses. An excerpt:
(§1) Methods: The method employed in this characterization is as follows: Female white Swiss mice, average weight 20-23 grams, were infected intraperitoneally with 3-20 times the number of organisms calculated to be lethal for 50% of the infected control animals (3-20 LD50 doses). At the time of infection and again six hours later, therapy was given by the designated route. Controls of the virulence of the culture and the toxicity of the antibiotic for uninfected mice were included in the tests. Seven days after infection the test was considered complete and the amount of the antibiotic (I) that would be required to protect 50% of the infected and treated animals was calculated by the method of Knudsen and Curtis; J. Amer. Stat. Assoc. Vol. 42: page 282 (1947).
The method employed in these studies is the same as described above with regard to the in vivo characterization of 810A. The results of these tests are described below in Table XIb:
Administration was by subcutaneous injection. At the completion of the test period, usually seven days after administration, the amount of product required to protect 50% of the mice (ED50) from this otherwise fatal injection was calculated: […]

In data set [3] the test system is Proteus morganii 356. Kind of data set: In vivo mouse protection test, cephalosporin-resistant clinical isolate. Set-up: species or system white Swiss mice. Conditions: s.c. × 2 doses.
Description: as §1
In addition to the aforementioned in vivo trials of the product, a clinical isolate of Proteus morganii 356 which is resistant to cephalosporins and capable of degrading cephalosporin C, was employed in a mouse protection test performed in the same manner as reported above.

Data set [4] has as its system Alcaligenes faecalis (MB-9). Conditions: known property of the organism; cited from earlier work.
A further data set concerns penicillinase. Conditions: cited from earlier work.
For a further data set, the system named is Proteus mirabilis 241. In words: Bacterial inactivation. Conditions: four hours; B. subtilis (MB-964); 240 min.
The subject of a further data set is Proteus morganii 251. Kind of data set: Bacterial inactivation. The settings on record: four hours; B. subtilis (MB-964); 240 min.
Data set [5] has as its system gram-negative and gram-positive bacteria. Conditions: cited from earlier work.
Another data set deals with Escherichia coli 236. In words: Bacterial inactivation. The settings on record: four hours; B. subtilis (MB-964); 240 min.
Data set [6] deals with Proteus morganii 356. Kind of data set: Bacterial inactivation. Conditions: four hours; B. subtilis (MB-964); 240 min.
Data set [7] concerns Alcaligenes viscosus (MB-12). Kind of data set: Bacterial inactivation, washed bacterial cells. Conditions: 4 hour incubation; assayed on B. subtilis (MB-964) plates.
In data set [8] the test system is Alcaligenes faecalis (MB-9). The settings on record: alcaligenes faecalis cells, 3 h.
The test system of data set [9] is gram-negative and gram-positive infections. In words: In vivo protection against infection (general statements). Also noted: species or system mice.
Description: as §1
The method employed in these studies is the same as described above with regard to the in vivo characterization of 810A.

The subject of data set [10] is degradative bacteria / enzymatic degradation. In words: Resistance to enzymatic degradation / bacterial inactivation (general statements). Type of data set: biochemical. Conditions: compared with cephalosporin C. The source says:
Bacterial Inactivation with 810A: An in vitro study was designed to determine the resistance of Antibiotic 810A, to bacterial inactivation as compared with cephalosporin C, cephaloridine and cephalothin.

For a further data set, the system named is Bacillus sp. Kind of data set: In vitro disc-plate agar diffusion, antibacterial spectrum (7 mm = no zone). The data set is classed as cell-based. Conditions: 16 h, 192 μg/ml, inoculum 5 ml/150 ml, 25° C., read-out: Inhibition Zone Diameter. (In general: Agar diffusion results depend on both activity and mobility in agar.)
The test system of another data set is Bacillus subtilis. The description is as above. Type of data set: cell-based. The settings on record: 16 h, read-out: Inhibition Zone Diameter.
In the next data set the test system is Xanthomonas vesicatoria. Described as above. Type of data set: cell-based. The settings on record: 16 h, read-out: Inhibition Zone Diameter.
The next data set relates to Escherichia coli W-MB-60. Kind of data set: Special effects spectrum in vitro study, disc-plate (7 mm = no zone). Type of data set: cell-based. The settings on record: WMB60, 16 h.
The test system of a further data set is Escherichia coli strains. Kind of data set: microbe, parasite or virus in culture. The data set is classed as cell-based. The settings on record: 16 h, 192 μg/ml, Sensitive parent, 25° C., read-out: Inhibition Zone Diameter.
The next data set deals with Salmonella gallinarum. Kind of data set: In vitro disc-plate agar diffusion, antibacterial spectrum (7 mm = no zone). Type of data set: cell-based. The settings on record: Salmonella enterica, 16 h, 192 μg/ml, inoculum 10 ml/150 ml, 25° C., read-out: Inhibition Zone Diameter.
The test system of another data set is Escherichia coli. Kind of data set: In vitro disc-plate agar diffusion, antibacterial spectrum (7 mm disc; 7 mm = no inhibition zone). Type of data set: cell-based. The settings on record: 16 h, 192 μg/ml, inoculum 5 ml/150 ml, 25° C., read-out: Inhibition Zone Diameter.
A further data set concerns Proteus vulgaris. In words: In vitro disc-plate agar diffusion, antibacterial spectrum (7 mm = no zone). The settings on record: 16 h, read-out: Inhibition Zone Diameter. The data set is classed as cell-based.
Where [11] appears, read: 2 hour incubation, assay organism B. subtilis 964.
[12] abbreviates: 2 hour incubation, assay organism V. percolans 1272.
Setting [13] is: 2 hour incubation, cell-free extract, assayed on V. percolans (MB-1272) plates.

The values that follow come from patent US4017487A, “7β-(D-5-amino-5-carboxyvaleramido )-7-methoxy-3-substituted-3-cephem-4-carboxylic acid antibiotics” (priority 1974, dated 1977).

Structures can show the parent of a compound that is named as a salt. Where two headings read alike, the source gives them in different places. Where only a bound is given, the exact number is not on record here.

On to `CO[C@@]1(NC(=O)CCC[C@@H](N)C(=O)O)C(=O)N2C(C(=O)O)=C(CN=[N+]=[N-])CS[C@@H]21` [7β-(D-5-amino-5-carboxyvaleramido)-3-(azidomethyl)-7-methoxy-3-cephem-4-carboxylic acid], for which the bioactivity entry in data set [1] (several strains of bacteria) was “possessed bioactivity against several strains of bacteria”.
Regarding `COC(=Cc1ccc(O)cc1)C(=O)OCC1=C(C(=O)O)N2C(=O)[C@](NC(=O)CCC[C@@H](N)C(=O)O)(OC)[C@H]2SC1` [7β-(D-5-amino-5-carboxyvaleramido)-3-(α-methoxy-p-hydroxycinnamoyloxymethyl)-7-methoxy-3-cephem-4-carboxylic acid], the IC (25 mm zone) with Proteus vulgaris MB-838 (Proteus vulgaris, MB838, read-out: bio-potency (concentration for a 25 mm. zone)) turned out to be 18 µg/mL.
For `CO[C@@]1(NC(=O)CCC[C@@H](N)C(=O)O)C(=O)N2C(C(=O)O)=C(C)CS[C@@H]21` [7β-(D-5-amino-5-carboxyvaleramido)-3-methyl-7-methoxy-3-cephem-4-carboxylic acid], the bioactivity result in the data set with Vibrio percolans MB-1272 (50 μg/ml) was “Inactive”.
`CO[C@@]1(NC(=O)CCC[C@@H](NC(=O)OC(C)(C)C)C(=O)O)C(=O)N2C(C(=O)O)=C(COC(N)=O)CS[C@@H]21` [7β-(D-5N-tert-tertiary-butoxycarbonylamino-5-carboxyvaleramido)-3-(carbamoyloxymethyl)-7-methoxy-3-cephem-4-carboxylic acid]: the “biopotency relative to starting material” value in data set [1] (relative to disodium salt of 842A) is reported as “one-tenth”.
For the molecule `O=C(Cc1cccs1)N[C@@H]1C(=O)N2C(C(=O)[O-])=C(C[n+]3ccccc3)CS[C@H]12` [Cephaloridine], the “Antibiotic Activity Remaining” value in [2] (setting [11]) and in data set [2] (setting [12]) was less than 10 µg/mL each time. Besides, the “percent inactivation” value in [2] (aerobacter cloacae culture filtrate, 2 h) is 96%. The “protection against Proteus morganii 3202” value in the data set on Proteus morganii 3202 is “failed to protect”. Further, the “ED50 by Subcutaneous Route × 2 Doses (average of Two Trials)” value in the data set with Proteus morganii 356 [3] is 9,270 μg.
With `CC(=O)OCC1=C(C(=O)O)N2C(=O)[C@@H](NC(=O)CCC[C@@H](N)C(=O)O)[C@H]2SC1` [Cephalosporin C], in data set [4], the “inactivation of cephalosporin C” value is on record as “completely inactivate”. Besides, the “percent inactivation” value in [2] (setting [13]) is 96%; with Proteus mirabilis 241, 72%; with Proteus morganii 251, more than 99%; in the data set with Escherichia coli 236, more than 99%; in the data set with Proteus morganii 356 [6] it was more than 99%; in data set [7] it was more than 99%. For the same molecule, the resistance to penicillinase result in the data set on penicillinase is listed as “inherent resistance to penicillinase”. Besides, the antibacterial activity result in [5] was “only moderately active”; in [5] (listed as cepahlosporin C), “relatively low antibacterial activity”.
On to `CC(=O)OCC1=C(C(=O)O)N2C(=O)[C@@H](NC(=O)Cc3cccs3)[C@H]2SC1` [Cephalothin], for which the “percent inactivation” value in [2] (setting [13]) came to 66%; in data set [8] it was 50%. Further, the “Antibiotic Activity Remaining” value in data set [2] (setting [11]) is 140 µg/mL; in data set [2] (setting [12]) it was 85 µg/mL. Besides, the “protection against Proteus morganii 3202” value in the data set with Proteus morganii 3202 is recorded as “failed to protect”. Further, the “ED50 by Subcutaneous Route × 2 Doses (average of Two Trials)” value in the data set on Proteus morganii 356 [3] is given as > 20,000 μg.
Take `COC(=Cc1ccc(OS(=O)(=O)O)cc1)C(=O)OCC1=C(C(=O)O)N2C(=O)[C@](NC(=O)CCC[C@@H](N)C(=O)O)(OC)[C@H]2SC1` [Ic, 7β-(D-5-amino-5-carboxyvaleramido)-3-(α-methoxy-p-sulfooxycinnamoyloxymethyl)-7-methoxy-3-cephem-4-carboxylic acid]: the “Total Biological Units” value with Proteus vulgaris MB-838 (Example 6 separation) is given as 10,000 units. Moreover, the “in vivo protection / activity” value in data set [9] (mouse, in vivo) is “when administered intraperitoneally, it is effective against a variety of gram-negative and gram-positive infections”. In addition, the “oral protection against infections” value in data set [9] (oral) is reported as “protects against infections due to Proteus vulgaris”. Also, the “resistance to enzymatic degradation” value in data set [10] is “more resistant to enzymatic degradation than cephalosporin C”.
On to `CC1(C)S[C@@H]2[C@H](NC(=O)Cc3ccccc3)C(=O)N2[C@H]1C(=O)O` [Penicillin G], for which, in the data set with penicillinase, the resistance to penicillinase result is listed as “in the presence of penicillinase it is degraded to a form which is ineffective against most pathogens”.
In the case of `CO[C@@]1(NC(=O)CCC[C@@H](N)C(=O)O)C(=O)N2C(C(=O)O)=C(COC(N)=O)CS[C@@H]21` [Sodium Salt], the zone of inhibition at 192 µg/mL was 7 mm in the data set with Bacillus sp.; 18 mm in the data set on Bacillus subtilis; 17 mm in the data set with Xanthomonas vesicatoria; 24 mm with Escherichia coli W-MB-60 (pH 9, read-out: Inhibition Zone Diameter, 192 μg/ml, 0.1 M Phosphate Buffer pH 9); 18 mm in the data set on Escherichia coli W-MB-60 (read-out: Inhibition Zone Diameter, 192 μg/ml, Cation Exchange Resin (Dow ET 91) 1%); 18 mm with Escherichia coli W-MB-60 (read-out: Inhibition Zone Diameter, 192 μg/ml, Control (no additions)). The zone of inhibition at 192 µg/mL was 18 mm in the data set with Escherichia coli strains, 25 mm in the data set with Salmonella gallinarum, 18 mm in the data set with Escherichia coli and 24 mm with Proteus vulgaris. The “concentration giving a 25 mm. zone” value with Vibrio percolans MB-1272 (25 mm. zone, listed as Sodium Salt of 842A) was 5 µg/mL.
